According to patent US9950005B2, “Compositions comprising biomembrane sealing agent for treatment of neuronal injury, and methods of use” (WARSAW ORTHOPEDIC, INC., priority 2006, dated 2018):

Key:
Assay type in all cases: in vivo, rat
[1] = system: carrageenan-induced hind paw acute inflammation; assay: Carrageenan hind paw acute inflammation model, mechanical allodynia (up-down method); conditions: Example 7, 24 h after carrageenan
Experimental: Animals were treated with saline (0.5% final), indomethacin, PEG, magnesium or combined PEG+magnesium solutions. Each animal received 2 injections, the first one 1 hour following carrageenan injection and the second injection 6 hours later. The total dose of PEG and magnesium chloride administered was of 2 and 0.135 g/kg (body weight) respectively. There were 10 animals per group.
Indomethacin (Fluka, cat. 57413, lot 450544/1) was dissolved in 25% hydroxyl-propyl beta cyclodextrin (hpBCD) by gentle heating and stirring. The PEG solution was composed of PEG3350 at 30% in 0.5% saline, the magnesium solution was composed of magnesium chloride at 2% and the combined PEG+magnesium solution was composed of 30% PEG3350+2% Magnesium Chloride (custom made by AAIPharma Developmental Services, Wilmington, N.C.). […]
Twenty-four hours following carrageenan injection into the left paw, the same paw was tested for mechanical allodynia. Baseline and post-treatment values for non-noxious mechanical sensitivity were evaluated using 8 Semmes-Weinstein filaments (Stoelting, Wood Dale, Ill., USA) with varying stiffness (0.4, 0.7, 1.2, 2.0, 3.6, 5.5, 8.5, and 15 g) according to the up-down method (Chaplan et al., 1994). […]
To evaluate the significance of difference between experimental groups, data were analyzed using an unpaired, two-tailed t statistical test with confidence intervals of 95%.

[2] = system: controlled cortical impact model of brain injury; assay: Morris Water Maze test of cognitive function after controlled cortical impact TBI
Text: Male Sprague-Dawley rats (Harlan Sprague-Dawley, Indianapolis, Ind.), weighing 350-450 grams each were given free access to food and water before the experiment. The animals were anesthetized with halothane (1% in 70%/30% […] by mask).
The controlled cortical impact model of brain injury utilized in this study has been described in detail (Scheff and Sullivan, 1999). Animals were anesthetized with isoflorane and placed in a stereotaxic frame in the […] position. A 6 mm craniotomy located approximately midway between bregma and lambda, just above the somatosensory cortex, was made using a Michele trephine. The skull disk was then removed without disturbing the underlying dura mater. The exposed brain was injured using an electronically controlled piston (5 mm diameter, 65 kdynes). The animals in the “sham” group underwent identical surgical procedures, but the surface of the brain was not impacted.
Following surgery, animals were placed in their home cage and dosing was initiated. Animals were treated with saline (Group 1: sham, Group 2: injured), PEG (Group 3: injured), magnesium (Group 4: injured) or a combination of PEG and magnesium solutions (Group 5: injured). The PEG solution was composed of PEG3350 at 30% in 0.5% saline (custom made by AAIPharma Developmental Services, Wilmington, N.C.). […] The magnesium solution was diluted in saline 1:1 before intravenous injection as recommended by the manufacturer. In the cases of combined PEG+Mg combined treatments, animal received the PEG and magnesium components from two individual solutions.
The first two injections were administered 15 minutes following injury. Another round of two injections was given 6 hours later. […] The compounds tested were administered by bolus intravenous injection. There were 10 animals per group.
This behavioral endpoint measure the ability of the rat to learn a new task based on the memorization of spatial cues. […]. […]
To evaluate the significance of difference between experimental groups, data were analyzed using an unpaired, two-tailed t statistical test with confidence intervals of 95%. […]

[3] = system: spinal cord contusion (T10, pneumatic impactor); assay: Spinal cord lesion volume after spinal cord contusion (dural impact); conditions: Example 4, total PEG 2 g/kg, magnesium sulfate 0.12 g/kg i.v., PEG change not statistically significant
Text: Sprague-Dawley female rats (200-225 gm) received a spinal cord contusion using the Precision Scientific Inc pneumatic impactor. Prior to surgery, rats were assigned to different treatment groups based on a randomized block design so that on any given surgery day all treatments would be included. […] The vertebral column was stabilized with angled clamps on the upper thoracic (T8) and lumbar (T11) levels and the impactor with a tip diameter of 2 mm was delivered at approximately 50 kd onto the exposed, intact dura overlying the dorsal spinal cord. The impactor was immediately removed, the wound irrigated with saline, and the muscle and skin openings sutured together. Female animals were used due to the paralysis associated with the injury and ease of voiding the bladder.
At the end of the study, the spinal cords were extracted and fixed in 4% paraformaldehyde. […] Tissue sparing was determined by computed image analysis be from 10 evenly spaced sections through the injured T10 segment. […]

[4] = system: controlled clip-compression injury at T4; assay: Neuropathic pain (mechanical allodynia, Semmes-Weinstein monofilament) after SCI; conditions: Example 6; mechanical allodynia up to 3 weeks post-injury
Experimental: Animals were prepared as described in Example 3. Animals were tested for the development of neuropathic pain before and up to 3 weeks post-injury. Neuropathic pain occurrence and severity was evaluated by the response of the animal to a stimulus that is normally not painful or allodynia. […] The monofilament was applied 10 times for 3 seconds, with each stimulus being separated by a 5 second interval, and the number of avoidance responses out of a possible 10 were recorded. Avoidance responses were defined as flinching, escape, vocalization, or abnormal aggressive behaviors. The scoring system used to monitor mechanical allodynia has been presented in details in Gris et al., 2004. Mechanical allodynia testing was conducted twice per week and the 2 tests were averaged for each animal and reported as a weekly pain score. To evaluate the significance of difference between experimental groups, data were analyzed using an unpaired, two-tailed t statistical test with confidence intervals of 95%. The Welch's modification was also used to analyze the motor recovery to take in account the significant variability in the control group.

## COc1ccc2c(c1)c(CC(=O)O)c(C)n2C(=O)c1ccc(Cl)cc1 [Indomethacin]
[1]; carrageenan-saline 3.4+/−0.5, sham 12.7+/−1.1, higher is better
  mean pain score (mechanical allodynia): 5.6+/−0.9

## O=S(=O)([O-])[O-].[Mg+2] [Mg, magnesium sulfate]
[2]; Example 1, i.v. 15 min and 6 h post-injury, total PEG 1.4 g/kg, magnesium sulfate 0.230 mmol/kg, Morris Water Maze day 9-14
  effect on cognitive functions following TBI: no effect
[3]
  reduction of the lesion volume relative to control group (SCI-Saline): 33%
[4]
  effect on the development of neuropathic pain after SCI: no significant effect

## [Cl-].[Cl-].[Mg+2] [magnesium chloride]
[2]; Example 2, total 1.4 g/kg PEG, 0.230 mmol/kg magnesium chloride, 2 injections 15 min and 6 h post-TBI
  effect on cognitive recovery after TBI: no significant effect
[2]; summary statement in description
  effect on the loss of cognitive functions following brain injury: no effect
[1]; total PEG 2 g/kg, magnesium chloride 0.135 g/kg
  effect on the pain score relative to animals treated with saline: no significant effect
